Laboratory results as given in patent US20220265629A1, “TREATMENT OF SYSTOLIC DYSFUNCTION AND HEART FAILURE WITH REDUCED EJECTION FRACTION WITH THE COMPOUND (R)-4-(1-((3-(DIFLUOROMETHYL)-1-METHYL-1H-PYRAZOL-4-YL)SULFONYL)-1-FLUOROETHYL)-N-(ISOXAZOL-3-YL)PIPERIDINE-1-CARBOXAMIDE” (MyoKardia, Inc., priority 2019, published 2022).
Where two headings read alike, the source gives them in different places.

Experiment: Food effect cross-over study, 200 mg (25 mg tablets), healthy volunteers: plasma pharmacokinetics
Assay type: in vivo, human
Conditions: for concentration at 36 h / concentration at 48 h / concentration at 72 h / AUC(0-inf) / AUC(0-t) / Cmax / Tmax / MRT / half-life: human, plasma; for concentration at 36 h: 36 hours postdose; for concentration at 48 h: 48 hours postdose; for concentration at 72 h: 72 hours postdose
Description: This example describes a clinical study for establishing, in healthy volunteers, the effect of a high fat, high caloric meal on the PK profile of Compound I, as compared to administration of the drug in the fasted state. The study also was intended to determine the safety and tolerability after a single oral dose of Compound I in the fed and fasted state in healthy volunteers. The measurements of PK, PD, and other clinical parameters were done as described in Example 1 above.
This study was an open-label, randomized, two-period cross-over study in healthy volunteers aged 18-55 years. Subjects were screened up to 28 days before the first treatment period. Subjects were admitted to the clinical site on Day −1 (the day before dosing) of Period 1. Approximately half of the subjects randomly received a single dose of Compound I on Day 1 of the first treatment period after the ingestion of a high fat, high caloric breakfast, and the remainder were closed in the fasted state. Any subject with a preclose resting HR≥95 beats per minute (bpm) was considered ineligible and was not treated. Any subjects with an acute gastrointestinal disorder which could impact drug/food absorption (e.g., vomiting, diarrhea) were rescheduled. Subjects were confined to the clinic until Day 4, and discharged after the 72-hour postclose PK and laboratory samples and vital signs were obtained. After a washout between dosing from 7 to 10 days (or, after consultation with the Investigator, up to 21 days after initial dosing if the subject was unable to attend within the 7 to 10-day window), the subject was admitted for Period 2. The sequence of fed/fasted versus fasted/fed periods was randomized. Subjects returned after the second treatment period for a safety follow-up visit on Day 7 (±1 day).
In both treatment periods, Compound I was administered with 240 mL of water. In the fasted state, the subjects fasted for 10 hours before and for 4 hours after the administration of Compound I. Water could have been ingested up to 1 hour before and after 1 hour post dosing. In the fed state, the subjects fasted for 10 hours before and for 4 hours after the ingestion of the meal, but could have ingested water up to 1 hour before and 1 hour after dosing. In the fed state, the subjects started ingesting the high fat, high caloric meal within 30 minutes prior to Compound I administration and finished the meal within 30 minutes. The meal contained approximately 800 to 1000 calories with about 50% of the calories from fat. The meal consisted of approximately 150 calories from protein, 250 calories from carbohydrate, and 500-600 calories from fat. An example of the meal was a breakfast consisting of two eggs fried in butter, two strips of bacon, two slices of buttered toast, 4 ounces of hash brown potatoes, and 8 ounces of whole milk.
Each subject received two oral doses of 200 mg of Compound I formulated as 25 mg tablets (8 tablets) in a randomized, cross-over fashion, once in the fasted state and the other time after the ingestion of a high fat, high caloric breakfast. There was a washout of between 7 and 21 days between the administrations of the two closes. The Compound I drug substance was a crystalline, free-base, synthetic molecule with a molecular weight of 435.4.
Plasma drug concentrations were measured as described in Example 1 above. Blood samples to measure Compound I plasma concentration were collected at various time points, including on Day 1 preclose (1 hour prior to dosing) and at 1 (±5 min), 2 (±5 min), 3 (±5 min), 4 (+10 min), 5 (+10 min), 6 (+10 min), 9 (+20 min), 12 (+20 min), 18 (+30 min), 24 (+30 min), 36 (+30 min), 48 (+30 min), and 72 (+30 min) hours postclose on both treatment periods.
To assess the effect of food on the PK of Compound I, the two one-sided t-test procedure was used to construct 90% CI around the geometric mean ratios (fed/fasted) of plasma AUCinf, AUClast, and Cmax. […]

[1] = oral, Fed, read-out: Plasma concentration, Geometric Mean
[2] = oral, Fed, read-out: Plasma concentration, Mean
[3] = oral, Fed, read-out: Plasma concentration, Median
[4] = oral, Fasted, read-out: Plasma concentration, Geometric Mean
[5] = oral, Fasted, read-out: Plasma concentration, Mean
[6] = oral, Fasted, read-out: Plasma concentration, Median
[7] = subjects who completed both fasted and fed periods (N = 9)
[8] = subjects who completed both periods (N = 9)

Cn1cc(S(=O)(=O)[C@@](C)(F)C2CCN(C(=O)Nc3ccon3)CC2)c(C(F)F)n1 [Compound I, (R)-4-(1-((3-(difluoromethyl)-1-methyl-1H-pyrazol-4-yl)sulfonyl)-1-fluoroethyl)-N-(isoxazol-3-yl)piperidine-1-carboxamide]
concentration at 36 h [1]: 834 ng/mL | concentration at 36 h [2]: 881 ng/mL | concentration at 36 h [3]: 905 ng/mL | concentration at 48 h [4]: 306 ng/mL | concentration at 48 h [5]: 331 ng/mL | concentration at 48 h [6]: 346 ng/mL | concentration at 48 h [1]: 476 ng/mL | concentration at 48 h [2]: 526 ng/mL | concentration at 48 h [3]: 549 ng/mL | concentration at 72 h [4]: 93.2 ng/mL | concentration at 72 h [5]: 108 ng/mL | concentration at 72 h [6]: 112 ng/mL | concentration at 72 h [1]: 129 ng/mL | concentration at 72 h [2]: 161 ng/mL | concentration at 72 h [3]: 143 ng/mL | AUC(0-inf) (oral, N = 11, read-out: AUCinf, Fasted LSGM): 59400 ng·h/mL | AUC(0-inf) (oral, N = 11, read-out: AUCinf, Fed LSGM): 91600 ng·h/mL | AUC(0-t) (oral, N = 11, read-out: AUClast, Fasted LSGM): 57400 ng·h/mL | AUC(0-t) (oral, N = 11, read-out: AUClast, Fed LSGM): 88400 ng·h/mL | Cmax (oral, N = 11, read-out: Cmax, Fasted LSGM): 2300 ng/mL | Cmax (oral, N = 11, read-out: Cmax, Fed LSGM): 3640 ng/mL | Cmax (oral, fasted state, read-out: Cmax of mean plasma concentrations): 2310 ng/mL | Cmax (oral, fasted state, read-out: Cmax, Mean (SD)): 2350 ng/mL | Tmax (oral, fasted state, read-out: Tmax, Median (range)): 5 h | Tmax (oral, fasted state, read-out: tmax of mean plasma concentrations): 5 h | Cmax (oral, fed state, read-out: Cmax of mean plasma concentrations): 3200 ng/mL | Cmax (oral, fed state, read-out: Cmax, Mean (SD)): 3680 ng/mL | Tmax (oral, fed state, read-out: Tmax, Median (range)): 5.5 h | Tmax (oral, fed state, read-out: tmax of mean plasma concentrations): 6 h | AUC(0-inf) (oral, subjects who completed both fasted and fed periods (N = 9), read-out: AUCinf, Fasted LSGM): 61100 ng·h/mL | AUC(0-inf) (oral, subjects who completed both fasted and fed periods (N = 9), read-out: AUCinf, Fed LSGM): 93900 ng·h/mL | AUC(0-t) (oral, subjects who completed both fasted and fed periods (N = 9), read-out: AUClast, Fasted LSGM): 59000 ng·h/mL | AUC(0-t) (oral, subjects who completed both fasted and fed periods (N = 9), read-out: AUClast, Fed LSGM): 90500 ng·h/mL | Cmax (oral, subjects who completed both fasted and fed periods (N = 9), read-out: Cmax, Fasted LSGM): 2370 ng/mL | Cmax (oral, subjects who completed both fasted and fed periods (N = 9), read-out: Cmax, Fed LSGM): 3700 ng/mL | AUC(0-inf) (po, single 200 mg oral dose, Fasted (N = 10), read-out: AUCinf, Geometric Mean): 61000 ng·h/mL | AUC(0-inf) (po, single 200 mg oral dose, Fasted (N = 10), read-out: AUCinf, Mean): 62600 ng·h/mL | AUC(0-inf) (po, single 200 mg oral dose, Fasted (N = 10), read-out: AUCinf, Median): 66700 ng·h/mL | AUC(0-t) (po, single 200 mg oral dose, Fasted (N = 10), read-out: AUClast, Geometric Mean): 58800 ng·h/mL | AUC(0-t) (po, single 200 mg oral dose, Fasted (N = 10), read-out: AUClast, Mean): 60200 ng·h/mL | AUC(0-t) (po, single 200 mg oral dose, Fasted (N = 10), read-out: AUClast, Median): 64400 ng·h/mL | Cmax (po, single 200 mg oral dose, Fasted (N = 10), read-out: Cmax, Geometric Mean): 2320 ng/mL | Cmax (po, single 200 mg oral dose, Fasted (N = 10), read-out: Cmax, Mean): 2350 ng/mL | Cmax (po, single 200 mg oral dose, Fasted (N = 10), read-out: Cmax, Median): 2400 ng/mL | MRT (po, single 200 mg oral dose, Fasted (N = 10), read-out: MRT, Geometric Mean): 22.3 h | MRT (po, single 200 mg oral dose, Fasted (N = 10), read-out: MRT, Mean): 22.6 h | MRT (po, single 200 mg oral dose, Fasted (N = 10), read-out: MRT, Median): 23.9 h | half-life (po, single 200 mg oral dose, Fasted (N = 10), read-out: T1/2, z, Geometric Mean (converted)): 14.1 h | half-life (po, single 200 mg oral dose, Fasted (N = 10), read-out: T1/2, z, Mean (converted)): 14.3 h | half-life (po, single 200 mg oral dose, Fasted (N = 10), read-out: T1/2, z, Median (converted)): 14.9 h | Tmax (po, single 200 mg oral dose, Fasted (N = 10), read-out: Tmax, Geometric Mean): 4.58 h | Tmax (po, single 200 mg oral dose, Fasted (N = 10), read-out: Tmax, Mean): 4.7 h | Tmax (po, single 200 mg oral dose, Fasted (N = 10), read-out: Tmax, Median): 5 h | AUC(0-inf) (po, single 200 mg oral dose, Fed (N = 10), read-out: AUCinf, Geometric Mean): 91600 ng·h/mL | AUC(0-inf) (po, single 200 mg oral dose, Fed (N = 10), read-out: AUCinf, Mean): 93500 ng·h/mL | AUC(0-inf) (po, single 200 mg oral dose, Fed (N = 10), read-out: AUCinf, Median): 94000 ng·h/mL | AUC(0-t) (po, single 200 mg oral dose, Fed (N = 10), read-out: AUClast, Geometric Mean): 88400 ng·h/mL | AUC(0-t) (po, single 200 mg oral dose, Fed (N = 10), read-out: AUClast, Mean): 89900 ng·h/mL | AUC(0-t) (po, single 200 mg oral dose, Fed (N = 10), read-out: AUClast, Median): 89300 ng·h/mL | Cmax (po, single 200 mg oral dose, Fed (N = 10), read-out: Cmax, Geometric Mean): 3640 ng/mL | Cmax (po, single 200 mg oral dose, Fed (N = 10), read-out: Cmax, Mean): 3680 ng/mL | Cmax (po, single 200 mg oral dose, Fed (N = 10), read-out: Cmax, Median): 3770 ng/mL | MRT (po, single 200 mg oral dose, Fed (N = 10), read-out: MRT, Geometric Mean): 22.6 h | MRT (po, single 200 mg oral dose, Fed (N = 10), read-out: MRT, Mean): 23.1 h | MRT (po, single 200 mg oral dose, Fed (N = 10), read-out: MRT, Median): 23.6 h | half-life (po, single 200 mg oral dose, Fed (N = 10), read-out: T1/2, z, Geometric Mean (converted)): 13.6 h | half-life (po, single 200 mg oral dose, Fed (N = 10), read-out: T1/2, z, Mean (converted)): 13.8 h | half-life (po, single 200 mg oral dose, Fed (N = 10), read-out: T1/2, z, Median (converted)): 13.5 h | Tmax (po, single 200 mg oral dose, Fed (N = 10), read-out: Tmax, Geometric Mean): 6.02 h | Tmax (po, single 200 mg oral dose, Fed (N = 10), read-out: Tmax, Mean): 6.9 h | Tmax (po, single 200 mg oral dose, Fed (N = 10), read-out: Tmax, Median): 5.5 h | AUCinf, Geometric Mean Ratio - Fed/Fasted (% of Reference) [7]: 153.63% | AUClast, Geometric Mean Ratio - Fed/Fasted (% of Reference) [7]: 153.20% | Cmax, Geometric Mean Ratio - Fed/Fasted (% of Reference) [7]: 156.43% | Cmax, geometric mean ratio (fed/fasted) [8]: 156.43% | increases for AUCinf, AUC0-t and Cmax in the fed state [8]: approximately 50%
